Strand notation (5' to 3'): a small letter for the sugar, then the base; units joined by * are phosphorothioate-linked, units joined directly phosphodiester-linked; [ ] holds rarer units or linkages, { } end groups; capitals alone tell only the bases. k = constrained ethyl (cEt); [5mC] = 5-methylcytosine; d = 2'-deoxy (DNA)
Test system: Yap1 mRNA
Assay: Antisense inhibition of human Yap1 in A-431 cells by cEt gapmers, single dose (Example 2, RTS4814)
Assay type: cell-based
How it was run: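 Each 16-nucleoside gapmer (ten-deoxy gap, three-cEt wings) is tested once at 2,000 nM in A-431 cells by free uptake. Yap1 mRNA after about 48 hours is measured by quantitative RT-PCR and expressed relative to untreated control.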

[1] = Table 18, A-431 cells, 5,000 cells per well, free uptake, 2,000 nM modified oligonucleotide, approx. 48 hours, RTS4814, normalized to RIBOGREEN, Yap1 mRNA as percent of untreated control
[2] = Table 6, A-431 cells, 5,000 cells per well, free uptake, 2,000 nM modified oligonucleotide, approx. 48 hours, RTS4814, normalized to RIBOGREEN, Yap1 mRNA relative to untreated control cells
[3] = Yap1 mRNA as percent of untreated control, A-431 cells, 3-10-3 cEt gapmers targeting SEQ ID NO.: 1, and 2, Table 31
[4] = Table 20, Yap1 mRNA, percent of untreated control, 3-10-3 cEt gapmers targeting SEQ ID NO.: 1 and 2
[5] = Table 21, Yap1 mRNA, percent of untreated control, 3-10-3 cEt gapmers targeting SEQ ID NO.: 1 and 2
[6] = Table 24, Yap1 mRNA as percent of untreated control, 3-10-3 cEt gapmers targeting SEQ ID NO.: 1, and 2
[7] = Table 32, Yap1 mRNA, percent of untreated control, 3-10-3 cEt gapmers targeting SEQ ID NO.: 1, and 2
[8] = Table 33, Yap1 mRNA, percent of untreated control, 3-10-3 cEt gapmers targeting SEQ ID NO.: 1, and 2
[9] = A-431 cells, 5,000 cells per well, free uptake, 2,000 nM modified oligonucleotide, approx. 48 hours, RTS4814, normalized to RIBOGREEN, Table 4, asterisk (*) = targets amplicon region of primer probe set
[10] = Table 25, Yap1 mRNA as percent of untreated control, 3-10-3 cEt gapmers targeting SEQ ID NO.: 1, and 2
[11] = Table 5, A-431 cells, 5,000 cells per well, free uptake, 2,000 nM modified oligonucleotide, approx. 48 hours, RTS4814, normalized to RIBOGREEN, Yap1 mRNA relative to untreated control cells
[12] = Table 19, A-431 cells, 5,000 cells per well, free uptake, 2,000 nM modified oligonucleotide, approx. 48 hours, RTS4814, normalized to RIBOGREEN, Yap1 mRNA as percent of untreated control
[13] = Table 23, Yap1 mRNA as percent of untreated control, 3-10-3 cEt gapmers, single dose
[14] = Yap1 mRNA as percent of untreated control, A-431 cells, 3-10-3 cEt gapmers targeting SEQ ID NO.: 1, and 2, Table 30

In the case of “1074500 (k[5mC]*kT*kA*d[5mC]*dA*dA*dT*dA*dA*d[5mC]*d[5mC]*dA*dT*k[5mC]*k[5mC]*k[5mC]; antisense) [Compound 1074500]”, the “YAP1 (% UTC)” value [1] is reported as 10 % UTC.
In the case of “716537 (antisense kA*kT*kG*dT*dG*d[5mC]*dT*d[5mC]*d[5mC]*dA*dT*d[5mC]*dA*kA*k[5mC]*k[5mC]) [Compound 716537]”, the “YAP1 (% UTC)” value [2] is reported as 36 % UTC.
For “1074897 (antisense kG*kG*k[5mC]*dA*dA*dA*dG*dT*dT*d[5mC]*d[5mC]*dT*dA*kT*kG*k[5mC]) [compound 1074897]”, the “YAP1 (% UTC)” value [3] was 76 % UTC.
For “1075974 (kA*kA*kA*dA*dA*dA*dT*dT*d[5mC]*d[5mC]*dG*d[5mC]*dA*kA*k[5mC]*kA; antisense) [Compound 1075974]”, the “YAP1 (% UTC)” value [4] was 39 % UTC.
In the case of “1075239 (antisense kT*k[5mC]*kT*dT*dA*dA*dA*d[5mC]*dA*dG*dG*dT*dG*k[5mC]*k[5mC]*kA) [Compound 1075239]”, the “YAP1 (% UTC)” value [5] is reported as 27 % UTC.
In the case of “1074346 (antisense kA*kT*k[5mC]*dT*dG*dA*dG*d[5mC]*dT*dA*dT*dT*dG*kG*kT*k[5mC]) [Compound 1074346]”, the “YAP1 (% UTC)” value [6] is reported as 10 % UTC.
In the case of “1074375 (antisense kG*k[5mC]*kA*dG*dG*dG*dT*dG*d[5mC]*dT*dT*dT*dG*kG*kT*kT) [Compound 1074375]”, the “YAP1 (% UTC)” value [5] is reported as 33 % UTC.
With “1075314 (antisense kA*kA*kT*dA*dA*dA*dG*dT*d[5mC]*dT*dA*dA*dT*k[5mC]*k[5mC]*kA) [compound 1075314]” the “YAP1 (% UTC)” value [7] was 54 % UTC.
For “1074474 (k[5mC]*k[5mC]*kA*dA*d[5mC]*d[5mC]*d[5mC]*d[5mC]*d[5mC]*d[5mC]*d[5mC]*dA*d[5mC]*k[5mC]*kG*kA; antisense) [Compound 1074474]”, the “YAP1 (% UTC)” value [6] was 71 % UTC.
For “1075750 (k[5mC]*kA*kA*dT*dT*dA*dT*dG*dA*dA*dT*dG*dA*kT*kG*kG; antisense) [Compound 1075750]”, the “YAP1 (% UTC)” value [4] was 10 % UTC.
For “1075303 (kT*kA*kA*dA*d[5mC]*dT*dA*dA*dT*d[5mC]*dT*dA*d[5mC]*kA*kA*k[5mC]; antisense) [Compound 1075303]”, the “YAP1 (% UTC)” value [5] was 100 % UTC.
With “1076488 (antisense kG*k[5mC]*k[5mC]*dA*dA*dT*dA*dA*dG*dA*dT*dA*dA*kG*kA*kA) [Compound 1076488]” the “YAP1 (% UTC)” value (Table 22, Yap1 mRNA as percent of untreated control, 3-10-3 cEt gapmers, single dose) was 19 % UTC.
In the case of “1075507 (kG*kT*kA*d[5mC]*dA*dA*d[5mC]*d[5mC]*dT*dA*dG*dT*dG*kA*kT*kA; antisense) [compound 1075507]”, the “YAP1 (% UTC)” value [8] is reported as 82 % UTC.
“716388 (kA*kG*kA*dG*dG*dT*dG*dG*dT*d[5mC]*dT*dT*dG*kT*kT*k[5mC]; antisense) [Compound 716388]” was tested, and the “YAP1 (% UTC)” value [9] was 55 % UTC.
With “1076427 (k[5mC]*kA*kA*dA*dT*dT*dT*dA*d[5mC]*dT*dG*dA*dT*k[5mC]*kT*k[5mC]; antisense) [Compound 1076427]” the “YAP1 (% UTC)” value [10] was 3 % UTC.
“1074867 (kT*kA*kA*d[5mC]*dA*dT*dA*dT*dG*dA*dG*d[5mC]*dA*kT*kG*k[5mC]; antisense) [compound 1074867]” was tested, and the “YAP1 (% UTC)” value [8] was 40 % UTC.
“716540 (antisense kG*kA*kA*dA*dA*dG*dT*dT*dA*dT*dT*dA*d[5mC]*kA*kA*k[5mC]) [Compound 716540]” was tested, and the “YAP1 (% UTC)” value [2] was 120 % UTC.
With “716407 (k[5mC]*kT*kT*dA*dG*dT*d[5mC]*d[5mC]*dA*d[5mC]*dT*dG*dT*k[5mC]*kT*kG; antisense) [Compound 716407]” the “YAP1 (% UTC)” value [11] was 35 % UTC.
“716506 (antisense kT*k[5mC]*kT*dG*d[5mC]*dA*dG*dT*dG*dG*d[5mC]*d[5mC]*dA*kT*kT*kT) [Compound 716506]” was tested, and the “YAP1 (% UTC)” value [11] was 62 % UTC.
“1076242 (kA*kT*kG*d[5mC]*dA*dA*dT*dA*dA*dG*dG*dA*dA*k[5mC]*kA*kG; antisense) [compound 1076242]” was tested, and the “YAP1 (% UTC)” value [7] was 33 % UTC.
In the case of “1074564 (antisense k[5mC]*kT*kG*dA*dA*dT*dT*d[5mC]*d[5mC]*dA*dA*dT*d[5mC]*kG*kA*kG) [Compound 1074564]”, the “YAP1 (% UTC)” value [1] is reported as 4 % UTC.
“1075685 (k[5mC]*kA*kT*dA*dA*dT*d[5mC]*dA*dA*dA*dG*dG*dG*kT*kG*k[5mC]; antisense) [Compound 1075685]” was tested, and the “YAP1 (% UTC)” value [12] was 60 % UTC.
In the case of “1074697 (antisense kA*kT*k[5mC]*dA*dA*dG*dG*dT*d[5mC]*d[5mC]*d[5mC]*d[5mC]*d[5mC]*kT*kA*kA) [Compound 1074697]”, the “YAP1 (% UTC)” value [13] is reported as 44 % UTC.
“1075717 (k[5mC]*kA*kT*dA*dA*dA*dT*dT*dT*d[5mC]*dA*dG*d[5mC]*k[5mC]*kG*kA; antisense) [Compound 1075717]” was tested, and the “YAP1 (% UTC)” value [12] was 10 % UTC.
For “1075493 (antisense kA*kG*kA*d[5mC]*dA*dA*dG*dG*dG*dA*dT*dG*d[5mC]*kT*kA*kA) [Compound 1075493]”, the “YAP1 (% UTC)” value [12] was 67 % UTC.
With “716446 (kG*k[5mC]*kA*d[5mC]*dA*d[5mC]*d[5mC]*d[5mC]*dA*d[5mC]*dA*dA*dA*kA*kT*kT; antisense) [Compound 716446]” the “YAP1 (% UTC)” value [11] was 83 % UTC.
“716399 (kA*kA*kT*dT*dT*dG*d[5mC]*dT*dG*dT*dG*d[5mC]*dT*kG*kG*kG; antisense) [Compound 716399]” was tested, and the “YAP1 (% UTC)” value [2] was 40 % UTC.
For “716525 (antisense k[5mC]*kA*k[5mC]*dA*dG*dT*dA*d[5mC]*dT*dG*d[5mC]*dT*dA*k[5mC]*kA*kA) [Compound 716525]”, the “YAP1 (% UTC)” value [2] was 64 % UTC.
With “1076037 (k[5mC]*kT*kT*dA*dA*dA*dT*dT*d[5mC]*dT*d[5mC]*dT*dT*kA*k[5mC]*kG; antisense) [Compound 1076037]” the “YAP1 (% UTC)” value [12] was 21 % UTC.
With “1075411 (antisense k[5mC]*kA*kA*dA*dA*dA*dG*dG*dG*dT*dA*dA*dG*kG*k[5mC]*kA) [compound 1075411]” the “YAP1 (% UTC)” value [8] was 39 % UTC.
For “1075529 (kA*kA*kA*dT*d[5mC]*dG*dA*dA*dG*dG*dG*d[5mC]*dA*kA*kA*k[5mC]; antisense) [Compound 1075529]”, the “YAP1 (% UTC)” value [13] was 84 % UTC.
In the case of “1075953 (kA*kA*k[5mC]*d[5mC]*dT*dA*dT*dA*dT*dA*d[5mC]*d[5mC]*dT*kG*k[5mC]*kT; antisense) [compound 1075953]”, the “YAP1 (% UTC)” value [3] is reported as 36 % UTC.
In the case of “716398 (kT*kA*kT*dT*d[5mC]*d[5mC]*dG*d[5mC]*dA*dT*dT*dG*d[5mC]*k[5mC]*kT*kG; antisense) [Compound 716398]”, the “YAP1 (% UTC)” value [11] is reported as 70 % UTC.
In the case of “1074384 (kT*kT*k[5mC]*dA*dA*dG*dG*dT*dA*dG*dT*d[5mC]*dT*kG*kG*kG; antisense) [compound 1074384]”, the “YAP1 (% UTC)” value [14] is reported as 35 % UTC.
“716390 (kT*k[5mC]*kT*d[5mC]*dT*dG*dG*dT*dT*d[5mC]*dA*dT*dG*kG*k[5mC]*kA; antisense) [Compound 716390]” was tested, and the “YAP1 (% UTC)” value [2] was 66 % UTC.
For “716426 (kT*kT*kT*dG*dA*dT*dT*d[5mC]*dT*dT*dT*dA*dG*kA*kG*k[5mC]; antisense) [Compound 716426]”, the “YAP1 (% UTC)” value [2] was 45 % UTC.
With “1075851 (kG*k[5mC]*k[5mC]*dG*dA*dA*dT*dA*dT*dG*dG*dG*dA*kA*kA*kA; antisense) [Compound 1075851]” the “YAP1 (% UTC)” value [10] was 70 % UTC.
In the case of “1074149 (antisense kG*k[5mC]*k[5mC]*dG*dA*dG*dG*dT*dG*dG*dA*dG*dA*kA*kG*k[5mC]) [Compound 1074149]”, the “YAP1 (% UTC)” value [12] is reported as 58 % UTC.
With “1076293 (kG*k[5mC]*kT*dT*dA*dT*dT*dA*dT*dT*dG*dA*dG*kT*kT*kA; antisense) [Compound 1076293]” the “YAP1 (% UTC)” value [12] was 3 % UTC.
With “1074770 (kA*kT*k[5mC]*dT*dT*dA*dT*d[5mC]*d[5mC]*d[5mC]*dA*dA*dT*kG*k[5mC]*kT; antisense) [compound 1074770]” the “YAP1 (% UTC)” value [7] was 15 % UTC.
For “1076304 (kA*k[5mC]*kT*dA*dA*dT*dA*dA*dG*d[5mC]*d[5mC]*dT*d[5mC]*kA*k[5mC]*k[5mC]; antisense) [compound 1076304]”, the “YAP1 (% UTC)” value [14] was 30 % UTC.
“1076295 (kG*kT*kA*dT*dA*dT*dT*dA*dG*dT*dG*d[5mC]*d[5mC]*k[5mC]*k[5mC]*k[5mC]; antisense) [Compound 1076295]” was tested, and the “YAP1 (% UTC)” value [5] was 2 % UTC.
For “716493 (kA*k[5mC]*kA*dT*dT*dG*dA*dA*dA*dG*dA*d[5mC]*d[5mC]*k[5mC]*kT*kT; antisense) [Compound 716493]”, the “YAP1 (% UTC)” value [9] was 30 % UTC.
For “1076298 (kG*kT*kT*dA*dT*dA*dA*dA*dG*dA*d[5mC]*d[5mC]*d[5mC]*kA*kA*kT; antisense) [Compound 1076298]”, the “YAP1 (% UTC)” value [6] was 10 % UTC.
In the case of “1075431 (antisense kT*kA*kA*d[5mC]*dT*dA*dA*dA*d[5mC]*dT*dG*dA*dT*kT*k[5mC]*k[5mC]) [Compound 1075431]”, the “YAP1 (% UTC)” value [5] is reported as 74 % UTC.
